“And” between values parts separate entries of the source, which are not always exact repeats. Equal values may be shown once. The source made the active and inactive calls.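 The calls were made as follows: active = at a dose no more than twice the top valid tested dose, the fitted curve drops below -35% activity change; inactive = the rest, rising-direction activity included.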
test: NIH3T3 cell viability loss, ATP content – CellTiter-Glo luminescence, cherry-pick, set 2, cytotoxicity control for HSP40 inhibitor project, dose response (AID 624265); settings: NIH3T3 viability, CellTiter-Glo ATP luminescence; at 50 µM (top of the series);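 also: cells exposed to compound for 48 hours before the ATP read; 0% = median neutral control signal and -100% = no luminescence left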

SMILES | activity change, negative = toxicity
O=C(NC(=S)N(CCc1ccccc1)CCc1ccccc1)c1ccco1 | 20.1% (inactive)
O=S(=O)(Nc1ccccc1)c1ccc(Oc2ncc(C(F)(F)F)cc2Cl)cc1 | 13% (inactive)
CC(C)(C)n1nc(Cc2cccc3ccccc23)c2c(N)ncnc21 | 9.94% (inactive)
C=C(C)COc1ccc(-c2[nH]ncc2-c2ccccc2)c(O)c1 | -16.4% (inactive)
Clc1ccc(C2=NCCN2)cc1 | 6.22% (inactive)
CCCCC(=O)NC(=S)NNC(=O)CCc1ccccc1 | -16.3% (inactive)
C=CCc1ccc(O)c(-c2ccc(O)c(CC=C)c2)c1 | 9.45% (inactive)
O=C(NCC1CC1(Cl)Cl)Nc1ccc(Cl)c(Cl)c1 (configuration not stated) | 17.4% (inactive)
CCCCCCn1c(=O)c(C(=O)Nc2ncccc2C)c(O)c2ccccc21 | 6.84% (inactive)
COc1ccc(N=N/C(=C\O)C(=O)c2cccs2)cc1 | 14.1% (inactive)
O=[N+]([O-])c1ccc2c(OCc3nnc(-c4ccccc4Br)o3)ncnc2c1 | -6.18% (inactive)
O=c1c2ccccc2c(-c2ccc(O)cc2)nn1-c1cccc(C(F)(F)F)c1 | -18.6% (inactive)
COc1cnc(-c2ccccn2)nc1Oc1ccc(C(C)(C)C)cc1 | 23.5% (inactive)
O=[N+]([O-])c1cccc(C=NNc2ccc3ccccc3n2)c1O | -29.6% (inactive)
O=C(Nc1nnc(SCc2ccc(F)cc2)s1)c1ccccn1 | 5.25% (inactive)
C=CCN(CC=C)C(=S)NC(=O)c1ccc(C)c(Br)c1 | 19.7% (inactive)
CCc1ccc(CN(C)C(=O)c2cc(COc3cccc(C(F)(F)F)c3)on2)nc1 | 5.53% (inactive)
Cc1c(C2(O)CCCCC2)[nH]c2ccc(C(F)(F)F)cc12 | -6.56% (inactive)
CCCSC(=S)c1c(C)[nH]n(-c2ccccc2)c1=O | -14.1% (inactive)
Cc1ccc(O)c(C2=NNC(c3ccc(Cl)cc3)C2)c1 (configuration not stated) | 0.122% (inactive)
COc1cccc(/C=N/NC(=O)c2nc(-c3ccccc3)cc(-c3ccccc3)n2)c1O | -8.68% (inactive)
COc1ccc2[nH]c(=O)c(CN(Cc3cccnc3)C(=O)Nc3ccccc3)cc2c1 | -11.7% (inactive)
COc1ccc(N(C(=O)c2ccncc2)S(=O)(=O)c2ccccc2)cc1 | -6.26% (inactive)

SMILES | activity change, negative = toxicity
Cc1nc2ccc(C(C(F)(F)F)(C(F)(F)F)C(F)(F)F)cc2[nH]1 | 3.14% (inactive)
Cc1nc(-c2ccccn2)nc(N(C)c2ccccc2)c1Cl | 9.36% (inactive)
CC12CC3(C)CC(C)(C1)CC(NC(=O)N1CCCC1)(C2)C3 | 17.5% (inactive)
COC(=O)c1cccc2c1-c1ccccc1/C2=N/O | 28.2% (inactive)
Cc1ccccc1C(=O)NNC(=S)NC(=O)c1ccc(Cl)cc1Cl | -5.68% (inactive)
S=C(Nc1ccc(Oc2ccccc2)cc1)NC1CCCCCC1 | 12.1% (inactive)
CN1CCN(C(=O)c2cc(COc3ccc(F)cc3Cl)on2)CC1c1ccccc1 (configuration not stated) | 14.2% (inactive)
Cc1ccc(C)c(/C=C/C(=O)c2ccccc(=O)c2O)c1 | -4.58% (inactive)
CC(=O)Nc1cccc(NC(=O)CSc2ccc(-c3ccccn3)nn2)c1 | -9.54% (inactive)
CC(/C=N/n1c(COc2ccccc2)n[nH]c1=S)=C\c1ccccc1 | 14.6% (inactive)
O=c1cc(CSc2ccc(Cl)cc2)nc(-c2ccccn2)[nH]1 | 20.7% (inactive)
CCC(NC(=S)NCc1ccc(F)cc1)c1ccc(C(C)C)cc1 (configuration not stated) | 41.2% (inactive)
O=C(Nc1cc(Oc2ccc(Cl)cc2)cc([N+](=O)[O-])c1)c1ccco1 | -2.9% (inactive)
Cc1ccc(NC(=S)c2nc3ccccc3[nH]2)c(C)c1 | -2.47% (inactive)
Cc1nn(CCC#N)c(N)c1C1(O)C(=O)Nc2c(Cl)cc(Cl)cc21 (configuration not stated) | -6.69% (inactive)
Cc1cc(NS(=O)(=O)c2ccc(C3CCCCC3)cc2)no1 | -14.2% (inactive)
Cc1ccoc1C(=O)Nc1cccc(Oc2ccccc2)c1 | 9.85% (inactive)
Cc1csc(NC(=O)C(C)Oc2ccc(Cl)cc2C)n1 (configuration not stated) | 8.91% (inactive)
O/N=C(\c1ccc(Cl)cc1)c1cc2ccccc2o1 | -9.72% (inactive)
Oc1ccccc1-c1cc(-c2ccc3c(c2)OCCO3)n[nH]1 | -2.25% (inactive)
COc1cc2cnc(-c3ccccc3)c(C(=O)c3ccc(F)cc3)c2cc1OC | 26.6% (inactive)
O=C1Nc2c(Br)cccc2C1=O | -1.42% (inactive)
CCCOc1ccc(S(=O)(=O)n2cc(F)c(=O)[nH]c2=O)cc1 | 10.7% (inactive)

SMILES | activity change, negative = toxicity
O=C(Nc1nnc(-c2cccs2)o1)c1cccc(Oc2ccccc2)c1 | -7.72% (inactive)
CCOC(=O)c1cnc(-n2nc(C)cc2C)nc1NC1CCCC1 | 37.9% (inactive)
CCC(C)c1ccc(NC(=S)NCCn2cc(Br)cn2)cc1 (configuration not stated) | 16.1% (inactive)
Cc1cccc(C)c1N1C(=O)C2ON(c3ccccc3)C(c3ccncc3)C2C1=O (configuration not stated) | 15.5% (inactive)
COc1cc([N+](=O)[O-])cc(/C=N/NC(=O)c2cncc(Br)c2)c1O | -13.4% (inactive)
CCCCCOc1ccc(CSc2n[nH]c(C)n2)cc1 | 5.34% (inactive)
O=c1c2ccccc2nc(-c2ccc(-c3ccccc3)cc2)n1-c1ccncc1 | 4% (inactive)
Cc1ccc(-c2c3c(nc4sc(C(N)=O)c(N)c24)CCCC3)o1 | 14.4% (inactive)
Cc1ccsc1/C=C/c1ccc2cccc(O)c2n1 | -8.21% (inactive)
CCCCCCC(Cl)(Cn1ccnc1)c1ccccc1 (configuration not stated) | 16% (inactive)
Clc1ccc(COC(Cn2ccnc2)c2ccc(Cl)cc2Cl)c(Cl)c1 (configuration not stated) | 5.58% (inactive) and 0.687% (inactive)
O=C(N/N=C/c1cc(Cl)cc([N+](=O)[O-])c1O)c1ccccc1NS(=O)(=O)c1cccs1 | 2.81% (inactive)
O=C(Nc1ccc(Cl)cc1C(=O)Nc1ccc(Br)cn1)c1ccco1 | -5.93% (inactive)
COc1ccc(O)c(C(=O)CC(=O)c2ccccc2C)c1 | 0.039% (inactive)
Nc1nc(-c2ccc(Oc3ccccc3)cc2)cs1 | 6.84% (inactive)
COc1ccc(/C=N/Nc2cc(C)nc(-n3nc(C)cc3C)n2)cc1 | -9.51% (inactive)
C=CCOC(Cn1ccnc1)c1ccc(Cl)cc1Cl (configuration not stated) | 9.44% (inactive)
NC(=Nc1nc(-c2ccccn2)cc2ccccc12)c1ccccn1 | -27.1% (inactive)
O=c1c(CO)cc(CO)cc(CO)c1O | -3.78% (inactive)
c1ccc(C(=NNc2nc3ccccc3s2)c2ccccn2)cc1 | 11.9% (inactive)
CCc1ccc(OCc2n[nH]c(=S)n2Cc2ccccc2)cc1 | 3.81% (inactive)
Cc1ccc(O)c(-c2cc(-c3ccccc3C)[nH]n2)c1 | -5.19% (inactive)
COc1ccc(C(=O)On2c(-c3ccc(Br)cc3)nc3ccccc3c2=O)cc1 | 8% (inactive)

SMILES | activity change, negative = toxicity
O=C1N(c2ccc(Cl)cc2)C(c2cccnc2)N2CCCN12 (configuration not stated) | 17.3% (inactive)
CC1(C(=O)OCC(=O)Nc2ccc3ccccc3c2)CC1(Cl)Cl (configuration not stated) | 0.196% (inactive)
O=C(CN1CC[n+]2c(-c3cccs3)csc21)c1ccc(-c2ccccc2)cc1 | 28% (inactive)
O=C(COc1ccc([N+](=O)[O-])cc1)Nc1nc(-c2ccccn2)cs1 | -17.8% (inactive)
CCN(CC)c1ccc(/C=N/NC(=O)c2c(Cl)cnn2C)c(O)c1 | -24.5% (inactive)
Cc1ccc2oc(-c3ccccc3)c(C(=O)O)c(=O)c2c1 | -13.9% (inactive)
c1ccc(-c2ccc(SCc3cccnc3)nn2)nc1 | -5.74% (inactive)
Fc1ccc(CCNC(=S)Nc2ccc(F)c(Cl)c2)cc1 | -8.4% (inactive)
CCCn1c2ccccc2c2cc(C(=O)O)ccc21 | -3.19% (inactive)
CC/C(=N/NC(=O)c1ccccc1O)c1c(C)[nH]n(-c2ccccc2)c1=O | -2.64% (inactive)
C=CCNC(=S)N1CCC(Cc2ccccc2)CC1 | 7.32% (inactive)
O=S(=O)(c1ccc(Cl)cc1)N1CCC2(CC1)OCCN2S(=O)(=O)c1cccs1 | -0.748% (inactive)
CC(NC(=S)NC1CCC(C(C)(C)C)CC1)c1ccccc1 (configuration not stated) | 3.27% (inactive)
O=[N+]([O-])c1cc(C(F)(F)F)ccc1NCCc1c[nH]c2ccc(O)cc12 | -9.08% (inactive)
O=C(Oc1c(Cl)cc(Cl)c2cccnc12)c1cccs1 | 19% (inactive)
CC1(C)CC(=O)C(N=Nc2ccc3ncsc3c2)=C(O)C1 | 3.01% (inactive)
CN(C)c1ccc(C=c2c3cc(O)ccc3n3c2cc(-c2ccccc2)[n+]3C)cc1 | 3.47% (inactive)
CCN(CC)C(=O)CSc1ncnc2sc(-c3ccccc3)cc12 | 9.41% (inactive)
CCCOc1ccc2ccccc2c1/C=C1\SC(=O)NC1=O | 6.17% (inactive)
CCCC(C)Sc1nc2c([nH]1)c(=S)n(C)c(=O)n2C (configuration not stated) | 0.769% (inactive)
Cc1ccccc1Oc1nc(-c2ccccn2)nc2ccccc12 | 6.99% (inactive)
CCCCC(CC)c1nnc(NC(=O)c2cccs2)s1 (configuration not stated) | -1.51% (inactive)
Cc1ccc(-n2nnnc2SCC(=O)N2CCc3ccccc3C2)c(C)c1 | 3.85% (inactive)
